molecular target: CDK2/Cyclin A2 (Homo sapiens, UniProt P24941); assay: Inhibition of human N-terminal GST-tagged CDK2 (1 to 298 residues)/Cyclin A (174 to 432 residues) expressed in Escherichia coli Turner (DE3) cells assessed as reduction in ADP formation using PKTPKKAKKL as substrate by resorufin dye based fluorescence assay

| SMILES | IC50 [µM] |
| --- | --- |
| Cc1nn(-c2ccccn2)c2c1C(=O)CC(C)(C)C2N=[N+]=[N-] (configuration not stated) | 4.5 |
| Cc1nn(-c2ccccn2)c2c1C(=O)NCC(C)(C)C2 | > 1000 |
| Cc1nn(CCC#N)c2c1C(=O)CC(C)(C)C2Br (configuration not stated) | > 1000 |
| Cc1nn(-c2ccccn2)c2c1C(=O)CC(C)(C)C2 | 110 |
| Cc1nn(-c2ccccn2)c2c1C(=O)CCC2Br (configuration not stated) | 130 |
| COC(=O)CC(=O)Nc1ccc(-n2nc(C)c3c2C(Br)C(C)(C)CC3=O)nc1 (configuration not stated) | 2.7 |
| Cc1nn(-c2ccc(Cl)cn2)c2c1C(=O)CC(C)(C)C2Br (configuration not stated) | 3 |
| Cc1nn(-c2ccccn2)c2c1C(=O)CC(C)(C)C2Cl (configuration not stated) | 4.9 |
| Cc1nn(-c2ccc([N+](=O)[O-])cn2)c2c1C(=O)CC(C)(C)C2Br (configuration not stated) | 3.1 |
| Cc1nn(-c2ccc(C(F)(F)F)cn2)c2c1C(=O)CC(C)(C)C2Br (configuration not stated) | 6.7 |
| Cc1nn(-c2ccc(Cl)nn2)c2c1C(=O)CC(C)(C)C2Br (configuration not stated) | 26 |
| Cc1nn(-c2ccncc2)c2c1C(=O)CC(C)(C)C2Br (configuration not stated) | 10.5 |
| Cc1nn(-c2ccccn2)c2c1C(=O)CC(C)(C)C2S(=O)(=O)c1ccccc1 (configuration not stated) | 107 |
| Cc1nn(-c2ncccn2)c2c1C(=O)CC(C)(C)C2Br (configuration not stated) | 9.3 |
| Cc1nn(-c2ccccn2)c2c1C(=O)CC(C)(C)C2C (configuration not stated) | 200 |
| Cc1nn(-c2ccccn2)c2c1C(=O)CC(C)C2Br (stereo in doubt) | 4.8 |
| Cc1nn(-c2ccc(NS(N)(=O)=O)cn2)c2c1C(=O)CC(C)(C)C2Br (configuration not stated) | 2.4 |
| Cc1nn(S(=O)(=O)c2ccc([N+](=O)[O-])cc2)c2c1C(=O)CC(C)(C)C2Br (configuration not stated) | > 1000 |
| Cc1nn(-c2ccccn2)c2c1C(=O)CC(C(C)C)C2Br (stereo in doubt) | 470 |
| Cc1nn(-c2ccc3ccccc3c2)c2c1C(=O)CC(C)(C)C2Br (configuration not stated) | 37 |
| Cc1nn(-c2ccccn2)c2c1C(=O)CC(c1ccccc1)C2Br (configuration not stated) | > 1000 |
| Cc1nn(-c2ccccn2)c2c1C(O)CC(C)(C)C2Br (configuration not stated) | 560 |
| CC(=O)Nc1ccc(-n2nc(C)c3c2C(Br)C(C)(C)CC3=O)nc1 (configuration not stated) | 3.6 |
| Cc1nn(-c2ccccn2)c2c1C(=O)CC(C)(C)C2F (configuration not stated) | 21 |

| SMILES | IC50 [µM] |
| --- | --- |
| Cc1cccnc1-n1nc(C)c2c1CC(C)(C)C(Br)C2=O (configuration not stated) | 180 |
| Cc1nn(-c2ncccc2C(F)(F)F)c2c1C(=O)C(Br)C(C)(C)C2 (configuration not stated) | 230 |
| Cc1nn(-c2ccccn2)c2c1C(=O)CC(C)(C)C2N(C)C (configuration not stated) | 630 |
| CC(C)Cc1nn(-c2ccccn2)c2c1C(=O)CC(C)(C)C2Br (configuration not stated) | 820 |
| CC1(C)CC(=O)c2cnn(-c3ccccn3)c2C1 | > 1000 |
| Cc1nn(-c2ccccn2)c2c1/C(=N/O)CC(C)(C)C2Br (configuration not stated) | 59 |
| COC1c2c(c(C)nn2-c2ccccn2)C(=O)CC1(C)C (configuration not stated) | 46 |
| Cc1ccc(-n2nc(C)c3c2C(Br)C(C)(C)CC3=O)nc1 (configuration not stated) | 7.5 |
| Cc1nn(-c2cnccn2)c2c1C(=O)CC(C)(C)C2Br (configuration not stated) | 97 |
| Cc1nn(-c2ccccn2)c2c1C(=O)CC(C(C)C)C2Br (trans isomer) | 130 |
| Cc1nn(-c2ccccn2)c2c1C(=O)CC(C)C2Br (cis isomer) | 31 |
| Cc1nn(-c2ccccn2)c2c1C(=O)CC(C)(C)C2Sc1ccccc1 (configuration not stated) | 12 |
| Cc1nn(-c2ccc(NS(C)(=O)=O)cn2)c2c1C(=O)CC(C)(C)C2Br (configuration not stated) | 19 |
| Cc1nn(-c2ccccn2)c2c1C(=O)CC(C)(C)C2O (configuration not stated) | 110 |
| Cc1nn(-c2nc3ccccc3s2)c2c1C(=O)CC(C)(C)C2Br (configuration not stated) | > 1000 |
| CC1(C)CC(=O)c2cnn(-c3ccccn3)c2C1Br (configuration not stated) | 160 |
| Cc1nn(-c2ncccc2C(F)(F)F)c2c1C(=O)CC(C)(C)C2Br (configuration not stated) | 460 |
| Cc1nn(-c2ccccn2)c2c1C(=O)NCC(C)(C)C2Br (configuration not stated) | 12 |
| Cc1cccnc1-n1nc(C)c2c1C(Br)C(C)(C)CC2=O (configuration not stated) | > 1000 |
| Cc1nn(-c2ccccn2)c2c1C(=O)CC(C)(C)C2N (configuration not stated) | 350 |
| Cc1nn(-c2ccccn2)c2c1NC(=O)CC(C)(C)C2 | > 1000 |
| COc1cccc(-n2nc(C)c3c2C(Br)C(C)(C)CC3=O)n1 (configuration not stated) | 2.1 |
| Cc1nn(-c2ccc(N)cn2)c2c1C(=O)CC(C)(C)C2Br (configuration not stated) | 4.6 |

Reference: ChEMBL document CHEMBL4732187, “Tetrahydroindazole inhibitors of CDK2/cyclin complexes” (Eur J Med Chem, 2021)
